This is an account of results in US10800752B2, “Substituted naphtho[2,3-b]furans as water-soluble prodrugs for preventing and/or treating cancer” (BOSTON BIOMEDICAL, INC., priority 2015, dated 2020).

Molecules are shown by their SMILES. Structures can show the parent of a compound that is named as a salt.

The nature of data set [1]: Pharmacokinetics test, intravenous administration. To be noted: intravenously administered to mice.
Procedure: For water-soluble prodrugs described in the EXAMPLES, the concentration of 2-acetylnaphtho[2,3-b]furan-4,9-dione (Activated form 1) in plasma was measured. Animal species, an administration method, a method of making standard solutions, and a method of measuring the concentration in plasma are as described below.
Animal: Seven-week-aged male CD1 (ICR) mice were used as an experimental animal.
Administration method: A test substance was weighed, and then dissolved in 50 mmol/L glycine buffered saline (pH 2.0) to produce an administration solution. The body weight of a mouse was measured, and the prepared administration solution was intravenously administered.
Blood collecting method: Heparin was added to a blood-collecting vessel, and blood was collected from a mouse. To the obtained blood, 46% of Citric acid was added in 1% volume. It was then centrifuged to obtain plasma. To the collected plasma, 1 mol/L HCl was added in 10% volume to produce a plasma sample. A sample obtained by adding 10% volume of 1 mol/L HCl to blank plasma was used as a blank sample.
Making of a standard solution: One mg of a test sample was weighed, and dissolved in 10 mL of acetonitrile using a measuring flask to make a standard solution of 100 ug/mL.
Measurement of the concentration in plasma: One hundred ug/mL of the standard solution was diluted in 50% acetonitrile solution to make calibration curve samples of target concentrations. Twenty uL of a blank sample was added to 18 uL of the calibration curve sample to make a plasma calibration curve sample. Eighteen uL of 50% acetonitrile solution was added to 20 uL of the administered plasma sample to make a sample for plasma analysis. One hundred uL of acetonitrile (containing 1% volume of 10 mol/L HCl) containing an internal standard was added to the plasma calibration curve sample and the sample for plasma analysis, respectively. It should be noted that phenytoin was used as the internal standard and its concentration was prepared in 100 nmol/L. 10 uL of each sample was analyzed with LC-MS. A calibration curve was made from a value (peak ratio) of the peak area of a test substance in MS divided by the peak area of the internal standard, and the concentrations of plasma calibration curve samples. The concentration in a sample was calculated from the peak ratio of each sample and the calibration curve.
The format of data set [2] is in vivo, CD1 (ICR) mice. To be noted: orally administered to mice. An excerpt: It was then centrifuged to obtain plasma.
Data set [3] is described as follows: Evaluation of a conversion rate to 2-acetylnaphtho[2,3-b]furan-4,9-dione in pH 7.4 phosphate buffer solution. It counts as physicochemical. To be noted: Phosphate buffer solution (pH 7.4), 1 umol/L, 37° C., incubation time 120 min. Summed up: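 Compounds at 1 umol/L were incubated at 37° C in human plasma, CD1 mouse plasma or pH 7.4 phosphate buffer, sampled up to 120 minutes, acid/acetonitrile-deproteinised and analysed by LC-MS (ESI positive). Conversion (%) derived from the peak area ratio of the active form to phenytoin internal standard.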

A further data set in a line: Solubility test. To be noted: for solubility at 24 hours: pH 2, aqueous buffer, thermodynamic from solid.
Data set [4] can be described thus: Evaluation of a conversion rate to 2-acetylnaphtho[2,3-b]furan-4,9-dione in human plasma. It counts as in vitro ADME. To be noted: 1 umol/L. Summed up: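 Compounds at 1 umol/L incubated at 37° C in human plasma, CD1 mouse plasma or pH 7.4 phosphate buffer, sampled up to 120 minutes. After acidified acetonitrile protein removal, parent loss and conversion to 2-acetylnaphtho[2,3-b]furan-4,9-dione measured by LC-MS (ESI positive).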

Data set [5] is described as follows: Evaluation of a conversion rate to 2-acetylnaphtho[2,3-b]furan-4,9-dione in CD1 mouse plasma. It counts as in vitro ADME. To be noted: 1 umol/L. The procedure: For test compounds, the decrease rate of the test compounds and the conversion rate thereof to 2-acetylnaphtho[2,3-b]furan-4,9-dione in human plasma, CD1 mouse plasma, and pH 7.4 phosphate buffer solution were measured.
Test compounds were incubated at the concentration of 1 umol/L in human plasma (cat. no. 12250210, COSMO BIO), CD1 mouse plasma (cat. no. AP3054, KAC), and phosphate buffer solution at 37° C., and removed at predetermined times (0, 5, 10, 30, 60, and 120 minutes). After protein-removing treatment was performed, they are analyzed with LC-MS. It should be noted that the protein-removing treatment used acetonitrile containing: 10% volume of 1 mol/L hydrochloric acid; 1% volume of 46% citric acid; and phenytoin as an internal standard.
The measurement condition of LC-MS is as described below. LC-MS condition column: Kinetex 2.6 u PFP 100 A 50×2.1 mm Column temperature: 40° C.
Mobile phase: A: 0.1% formic acid-containing water
• B: 0.1% formic acid-containing acetonitrile A/B(min): 95/5(0)→5/95(3)→5/95(4)→95/5(4.1)→95/5(6) Flow rate: 0.4 mL/min Detection: ESI (positive mode) Injection volume: 10 uL
Measurement values are calculated from the peak area ratio in LC-MS between an internal standard material, phenytoin and an active form, 2-acetylnaphtho[2,3-b]furan-4,9-dione, and are expressed in %.
In the same way as Example 6, the incubation time was set as 120 minutes later, and the conversion rate of each of various test compounds to 2-acetylnaphtho[2,3-b]furan-4,9-dione in human plasma, CD1 mouse plasma, and pH 7.4 phosphate buffer solution was measured. A series of the present compounds were confirmed to be converted to 2-acetylnaphtho[2,3-b]furan-4,9-dione in pH 7.4 phosphate buffer solution in addition to human plasma and CD1 mouse plasma. Therefore, a series of the test compounds of the present invention were confirmed to be converted to the activated form via a route other than an enzymatic conversion.

The nature of the next data set: Solution stability test. It counts as physicochemical. To be noted: for % Residual ratio: 25 umol/L. The method, then: For Example 6, Example 11, and Example 22, the stability in each pH was measured. Test compounds at a concentration of 25 umol/L in respective buffer solutions prepared at pH 2.0, 3.0, 5.0, 7.4, and 9.0 were allowed to stand at 25° C. After 0, 3, 6, 9, 12, and 24 hours, they were measured with HPLC.
The buffer solutions used at respective pHs are as described below. pH 2.0: 50 mmol/L glycine buffer solution pH 3.0: 50 mmol/L citrate buffer solution pH 5.0: 50 mmol/L citrate buffer solution pH 7.4: 50 mmol/L phosphate buffer solution pH 9.0: 50 mmol/L glycine buffer solution
The measurement condition of HPLC is as described below.
Column temperature: 40° C.
Mobile phase: A: 0.1% trifluoroacetic acid-containing water

[6] abbreviates: 50 mmol/L glycine buffer solution (pH 2.0), room temperature, 24 hours shaking.
The mark [7] stands for this setting: Human plasma, 37° C., incubation time 120 min.
Setting [8] is: CD1 mouse plasma, 37° C., incubation time 120 min.

Procedure for Solubility test: A water-soluble prodrug was added into 50 mmol/L glycine buffer solution (pH 2.0). After shaking at room temperature for 24 hours, the mixture was filtered through a membrane filter, and then the filtrate was measured with HPLC.
The measurement condition of HPLC is as described below. HPLC condition column: Acquity UPLC BEH C18, 1.7 um, 50×2.1 mm

For `CC(=O)c1cc2c(OC(=O)NCCNCCC(=O)O)c3ccccc3c(OC(=O)NCCNCCC(=O)O)c2o1` [Example 5, 3,3′-((((((2-Acetylnaphtho[2,3-b]furan-4,9-diyl)bis(oxy))bis(carbonyl))bis-(azanediyl))bis(ethane-2,1-diyl))bis(azanediyl))dipropionic acid dihydrochloride], the “production of 2-acetylnaphtho[2,3-b]furan-4,9-dione (Activated form 1) (in words)” value (“production” below) in data set [1] is given as “rapidly produced”. The “concentration of 2-acetylnaphtho[2,3-b]furan-4,9-dione (Activated form 1) observed (in words)” value in data set [2] is given as “high concentration”. In addition, the “% Measurement value (conversion rate to 2-acetylnaphtho[2,3-b]furan-4,9-dione)” value (“% Measurement value” below) in data set [3] (dihydrochloride) is on record as 70%.

Regarding `CC(=O)c1cc2c(OC(=O)NCCCCCCN)c3ccccc3c(OC(=O)NCCCCCCN)c2o1.Cl.Cl` [Example 37], in the data set “Solubility test” (setting [6]), the “Solubility in pH 2.0 buffer solution” value is recorded as above 5.0 mg/mL. In addition, the “% Measurement value” value in data set [4] (setting [7]) was 35%; in data set [5] (setting [8]), 33%; in data set [3], 17%.

Turning to `CC(=O)c1cc2c(OC(=O)NCCCCN)c3ccccc3c(O)c2o1.Cl` [Example 74], the “Solubility in pH 2.0 buffer solution” value in the data set “Solubility test” (setting [6]) worked out at 4.9 mg/mL. For the same compound, the “% Measurement value” value in data set [4] (setting [7]) was determined as 70%; in data set [5] (setting [8]), 62%; in data set [3], 82%.

For `CC(=O)c1cc2c(OC(=O)NCCNCC(=O)O)c3ccccc3c(O)c2o1.Cl` [Example 71], in “Solubility test” (setting [6]), the “Solubility in pH 2.0 buffer solution” value is given as 0.1 mg/mL. Also, the “% Measurement value” value in data set [4] (setting [7]) is 61%; in data set [5] (setting [8]) it was 68%; in data set [3], 70%.

Regarding `CC(=O)c1cc2c(OC(=O)NCCCNCC(=O)O)c3ccccc3c(O)c2o1.Cl` [Example 77], in the data set “Solubility test” (setting [6]), the “Solubility in pH 2.0 buffer solution” value was found to be 0.5 mg/mL. The “% Measurement value” value in data set [4] (setting [7]) turned out to be 68%; in data set [5] (setting [8]) it was 70%; in data set [3], 66%.

`CC(=O)c1cc2c(OC(=O)NCCNCC(=O)O)c3ccccc3c(OC(=O)NCCNCC(=O)O)c2o1` [Example 4, 2,2′-((((((2-Acetylnaphtho[2,3-b]furan-4,9-diyl)bis(oxy))bis(carbonyl))bis(azanediyl))bis(ethane-2,1-diyl))bis(azanediyl))diacetic acid dihydrochloride]: in “Solubility test” (Solubility in pH 2.0 buffer solution, 50 mmol/L glycine buffer solution (pH 2.0), room temperature, 24 hours shaking), the solubility at 24 hours is above 5000 µg/mL. Besides, the “production” value in data set [1] was “rapidly produced”. For the same compound, the “concentration of 2-acetylnaphtho[2,3-b]furan-4,9-dione (Activated form 1) observed (in words)” value in data set [2] was “high concentration”. Further, the “% Measurement value” value in data set [3] (dihydrochloride) turned out to be 53%.

Regarding `CC(=O)c1cc2c(OC(=O)NCCCCCCCN)c3ccccc3c(OC(=O)NCCCCCCCN)c2o1.Cl.Cl` [Example 38], the “Solubility in pH 2.0 buffer solution” value in “Solubility test” (setting [6]) is above 5.0 mg/mL. The figures for the “% Measurement value” value in data set [4] (setting [7]), in data set [5] (setting [8]) and in data set [3] were 85%, 72% and 39%, respectively.

Take `CC(=O)c1cc2c(O)c3ccccc3c(OC(=O)NCCNCC(=O)NCC(=O)O)c2o1.Cl` [Example 83]: in “Solubility test” (setting [6]), the “Solubility in pH 2.0 buffer solution” value is given as above 5.0 mg/mL. Moreover, the “% Measurement value” value in data set [4] (setting [7]) stood at 67%; in data set [5] (setting [8]), 67%; in data set [3], 31%.

For `CC(=O)c1cc2c(OC(=O)OCCC[C@H](N)C(=O)O)c3ccccc3c(OC(=O)OCCC[C@H](N)C(=O)O)c2o1` [Example 22], in the data set “Solubility test” (glycine buffer solution), the solubility at 24 hours is above 5000 µg/mL. Moreover, the “% Measurement value” value in data set [4] (human, 120 min) was 37%; in data set [5] (CD1, mouse, 120 min) it was 56%; in data set [3], 22%. For the same compound, the “stability in solution (in words)” value was “sufficient stability” in the data set “Solution stability test” (pH 2.0, 25° C.) and “sufficient stability” in “Solution stability test” (pH 3.0, 25° C.). Also, the “% Residual ratio” value in the data set “Solution stability test” (pH 2.0, 25° C., 0 hr) was 100%; in the data set “Solution stability test” (pH 2.0, 25° C., 3 hr), 97.0%; in “Solution stability test” (pH 2.0, 25° C., 6 hr) it was 96.3%; in “Solution stability test” (pH 2.0, 25° C., 9 hr), 97.8%; in “Solution stability test” (pH 2.0, 25° C., 12 hr), 97.1%; in “Solution stability test” (pH 2.0, 25° C., 24 hr) it was 91.8%. Also, the “% Residual ratio” value in the data set “Solution stability test” (pH 3.0, 25° C., 0 hr) is 100%; in “Solution stability test” (pH 3.0, 25° C., 3 hr), 98.6%; in the data set “Solution stability test” (pH 3.0, 25° C., 6 hr) it was 97.8%; in the data set “Solution stability test” (pH 3.0, 25° C., 9 hr), 96.9%; in the data set “Solution stability test” (pH 3.0, 25° C., 12 hr) it was 96.0%; in “Solution stability test” (pH 3.0, 25° C., 24 hr), 92.6%. Further, the “% Residual ratio” value in the data set “Solution stability test” (pH 5.0, 25° C., 0 hr) was found to be 100%; in “Solution stability test” (pH 5.0, 25° C., 3 hr), 81.2%; in the data set “Solution stability test” (pH 5.0, 25° C., 6 hr) it was 69.4%; in “Solution stability test” (pH 5.0, 25° C., 9 hr) it was 58.8%; in “Solution stability test” (pH 5.0, 25° C., 12 hr), 49.7%; in “Solution stability test” (pH 5.0, 25° C., 24 hr) it was 24.5%. The “% Residual ratio” value in “Solution stability test” (pH 7.4, 25° C., 0 hr) came out at 100%; in “Solution stability test” (pH 7.4, 25° C., 3 hr) it was 0%; in “Solution stability test” (pH 7.4, 25° C., 6 hr), 0%; in “Solution stability test” (pH 7.4, 25° C., 9 hr), 0%; in “Solution stability test” (pH 7.4, 25° C., 12 hr), 0%; in “Solution stability test” (pH 7.4, 25° C., 24 hr) it was 0%. For the same compound, the “% Residual ratio” value was found to be 100% in “Solution stability test” (pH 9.0, 25° C., 0 hr); 0% in the data set “Solution stability test” (pH 9.0, 25° C., 3 hr); 0% in “Solution stability test” (pH 9.0, 25° C., 6 hr); 0% in “Solution stability test” (pH 9.0, 25° C., 9 hr); 0% in the data set “Solution stability test” (pH 9.0, 25° C., 12 hr); 0% in “Solution stability test” (pH 9.0, 25° C., 24 hr).

In “Solubility test” (glycine buffer solution), `CC(=O)c1cc2c(OC(=O)OCCCCNCC(=O)O)c3ccccc3c(OC(=O)OCCCCNCC(=O)O)c2o1` [Example 23, 2,2′-((((((2-Acetylnaphtho[2,3-b]furan-4,9-diyl)bis(oxy)bis(carbonyl))bis(oxy))bis(butane-4,1-diyl))bis(azanediyl)diacetic acid dihydrochloride] showed a solubility at 24 hours above 5000 µg/mL. Further, the “production” value in data set [1] is on record as “rapidly produced”.

A word on the solubility: it is the dissolved amount per volume that the medium holds. Read a high solubility as a readily soluble substance.
